In patent US5476850A, “Amino-substituted benzenesulfonylureas and -thioureas and their use as pharmaceuticals” (Hoechst Aktiengesellschaft, priority 1993, dated 1995):

What was measured:
RINm5F cells = assay: Membrane potential on isolated β-cells (whole cell patch clamp, RINm5F cells); format: cell-based; settings: compound 10^-6 mol per liter; diazoxide 100 μmol in bath; 34°±1° C.; blank cell potential -76
Source text: (2) Membrane potential on isolated β-cells:
The mechanism of action of the hypoglycemic sulfonylureas is elucidated in rough terms. The target organ is the β-cells of the pancreas where increased secretion of the hypoglycemic hormone insulin occurs. The release of insulin is controlled by means of the cell membrane potential. Glibenclamide causes a depolarization of the cell membrane, which promotes insulin release via an increased influx of calcium ions. The extent of this depolarization of the cell membrane ΔU was determined on RINm5F cells, a pancreas tumor cell line, for a few of the compounds according to the invention. The potency of a compound in this model predicts the extent of the hypoglycemic potential of this compound.
RINm5F cells were cultured at 37° C. in RPMI 1640 culture medium (Flow), to which 11 mmol of glucose, 10% (vol/vol) fetal calf-serum, 2 mmol of glutamine and 50 μg/ml of gentamycin were added. […]
Isolated RINm5F cells were transferred to a Plexiglas chamber on an inverted microscope which is equipped with a differential interference contrast optical system. […] In this whole cell configuration, the cell potential was recorded with the aid of a patch clamp amplifier (L/M EPC 7) and measured by applying a voltage ramp to the whole cell current. […]

[1] = tested on: papillary muscle of the guinea-pig; assay: Action potential duration on the papillary muscle of the guinea-pig (microelectrode technique; APD shortened by 2-deoxyglucose or rilmakalim); format: cell-based; settings: test substance 2.2·10^-5 mol per liter, 30 minutes after addition, control <40 ms; for APD95 -rilmakalim: action potential reduced by 1 μM rilmakalim (Hoe 234); for APD95 -DEO: action potential reduced by 2-deoxyglucose (DEO)
Source text: (1) Action potential duration on the papillary muscle of the guinea-pig:
ATP deficiency states, as are observed during ischemia in the cardiac muscle cell, lead to a reduction of the action potential duration. They count as one of the causes of so-called reentry arrhythmias, which can cause sudden heart death. The opening of ATP-sensitive K channels by the reduction of ATP counts as causal here.
To measure the action potential, a standard microelectrode technique is employed. For this, guinea-pigs of both sexes are killed by a blow to the head, the hearts are removed, and the papillary muscles are separated out and suspended in an organ bath. The organ bath is irrigated with Ringer solution (0.9% NaCl, 0.048% KCl, 0,024% CaCl2, 0.02% NaHCO3 and 0.1% glucose) and aerated with a mixture of 95% oxygen and 5% carbon dioxide at a temperature of 36° C. The muscle is stimulated by means of an electrode using square-wave impulses of 1 V and 1 ms duration and a frequency of 2 Hz. The action potential is derived and recorded by means of a glass microelectrode inserted intracellularly, which is filled with […] KCl solution. The substances to be tested were added to the Ringer solution in a concentration of 2.2·10^-5 mol per liter. The action potential is shown amplified on an oscilloscope using an amplifier from Hugo Sachs. The duration of the action potential is determined at a degree of repolarization of 95% (APD95). Action potential reductions are produced either by addition of a 1 μM solution of the potassium channel opener rilmakalim (Hoe 234) [W. Linz, E. Klaus, U. Albus, R. H. A. Becker, D. Mania, H. C. Englert, B. A. Schokens, Arzneimittelforschung/Drug Research, Volume 42 (II), 1992, pp. 1180 to 1185] or by addition of 2-deoxyglucose (DEO). In experimental physiology, ATP deficiency states are produced by 2-deoxyglucose by blockade of glucose metabolism. The action potential-reducing effect of these substances was prevented or reduced by the simultaneous addition of the test substances. Test substances were added to the bath solution as stock solutions in propanediol. The values indicated relate to measurements 30 minutes after addition. The APD95 in the presence of […] or rilmakalim and in the absence of the test substance counts as the control.

Row | SMILES | ΔU (depolarization of the cell membrane) (RINm5F cells) [mv] | APD95 -rilmakalim [1] [ms] | APD95 -DEO [1] [ms]
1 | CNC(=S)NS(=O)(=O)c1cc(CCNC(=O)c2cc(Cl)ccc2OC)ccc1N1CCOCC1 [Example 1, 2-Methoxy-5-chloro-N-{5-[1-sulfonylamino-N-(methylaminothiocarbonyl)-2-(4-morpholino)phenyl]ethyl}benzamide] | 14 | 121 ± 14 | 110
2 | CNC(=S)NS(=O)(=O)c1cc(CCNC(=O)c2cc(Cl)ccc2OC)ccc1N1CCCCC1 [Example 2, 2-Methoxy-5-chloro-N-{5-[1-sulfonylamino-N-(methylaminothiocarbonyl)-2-(1-piperidyl)phenyl]ethyl}benzamide] | 19 | 153 ± 15 | 105 ± 11
